Laboratory results from patent publication US11833119B2, “Combination therapies for the treatment of hepatocellular carcinoma” (priority 2018, dated 2023).

Assays:
[1] = tested on: Hep3B xenograft (human hepatocellular cancer cell line); experiment: Hep3B cells xenograft in vivo study, antitumor activity; design: species or system BALB/c nu/nu female mice; conditions: for Tumor growth inhibition % (TGI): 53 days
Experimental: The cell line used, Hep3B (also called HEP3B.1-7), was sourced from American Type Culture Collection (ATCC), verified free of […] contamination and verified for identity by short tandem repeat analysis of 9 markers.
For the human hepatocellular cancer cell line Hep3B xenografts, Hep3B cells were cultured in RPMI1640 medium containing 10% FBS at 37° C. in a 5% CO2 atmosphere and kept in exponential growth phase. For harvesting, the cells were washed with PBS, incubated with 0.25% trypsin-EDTA, and suspended in a 1:1 mixture of RPMI1640 medium containing 10% FBS. To prepare the inoculum at a final concentration of 5×10^7 cells/mL, the cell were spun and resuspended in RPMI1640 and Matrigel (Corning). To generate xenografts, 0.1-mL of the inoculum was injected subcutaneously into the right flank region of BALB/c nu/nu female mice, approximately 8-week-old, weighing 18-20 g, giving a final concentration of 5×10^6 cells/mouse.
When the mean tumor volume (TV) reached approximately 170 mm^3 (10 days after implantation), mice were selected based on their TVs, and were sorted into multiple treatment groups with 8 animals per group. Per os (PO) treatment with Compound 1 (300 mg/kg for Hep3B and 500 mg/kg for LIX125) alone or in combination with lenvatinib vehicle (control) or lenvatinib (10 mg/kg or 3 mg/kg) administered once daily (QD). Additional groups included treatment with lenvatinib (10 mg/kg or 3 mg/kg) in combination with Compound 1 vehicle. (Lenvatinib vehicle includes the vehicle in which lenvatinib is administered; but, without any lenvatinib. Likewise, Compound 1 vehicle includes the vehicle in which Compound 1 is administered; but, without any Compound 1.)
The administration volume (0.1 mL/10 g body weight) was calculated from the individual mouse body weight (BW) before administration. Body weights were measured daily and tumor measurements were performed twice weekly. Mice with >20% body weight loss compared with their day 1 body weight or bearing tumors with the longest diameter […] were immediately euthanized to prevent any pain or suffering for the animal.
The tumor volume (TV) in mm^3 was calculated according to the following formula: TV=length×width^2×0.5 length: largest diameter of tumor (mm) width: diameter perpendicular to length (mm). The tumor growth inhibition % (TGI) was calculated according to the following formula: Tumor growth inhibition % (TGI)=[(Average control TV day X−Treatment TV day X)/(Average control TV day X)]×100, where day X is any day of the treatment. The antitumor effects of the treatment, partial regression (PR) and complete regression (CR), stable disease (SD), and progressive disease (PD) were defined as follows: […]
PD: 3 consecutive measurements >120% of starting volume or 3 consecutive increasing measurements from best response; SD: 3 consecutive measurements >50% and <120% of starting volume; PR: 3 consecutive measurements <50% of starting volume; CR: 3 consecutive measurements <30 mm^3.
Data represent the mean±SEM for tumor volume (N=8). The differences in TV between groups were analyzed by multiple unpaired t-tests with significance determined using the Holm-Sidak method. Statistical analyses were performed using the GraphPad Prism version 7 (GraphPad Software, La Jolla, CA).
To determine whether lenvatinib enhances tumor growth inhibition (TGI) exerted by Compound 1, the Hep3B cell line was grown as a xenograft in female nude immunocompromised mice. Tumor bearing mice were orally treated daily for 53 days with (a) 300 mg/kg Compound 1 as single agent with lenvatinib vehicle; (b)(i) 10 mg/kg lenvatinib as a single agent with Compound 1 vehicle; (b)(ii) 3 mg/kg lenvatinib as a single agent with Compound 1 vehicle; (c)(i) 300 mg/kg Compound 1 and 10 mg/kg lenvatinib in combination; or (c)(ii) 300 mg/kg Compound 1 and 3 mg/kg lenvatinib in combination.

[2] = tested on: LIX125, a hepatocellular carcinoma patient derived xenograft (PDX) model; experiment: LIX125 PDX xenograft in vivo study, antitumor activity; conditions: 32 days
Experimental: The human primary hepatocellular model LIX125 from ChemPartner (shangpharma.com) was implanted into the female severe combined immunodeficiency (SCID) mice. When the tumors developed in mice, they were sacrificed and the resected tumors were implanted into female NU/NU mice for tumor preservation, histological diagnosis and in vivo efficacy study. Solid tumor tissues were depleted of necrotic components, cut into 10-15 mg pieces and mixed. Three to five pieces were mixed with […] Matrigel and implanted into a flank of 6-8 week old female NU/NU immune compromised mice weighing 18-20 g. All of the primary tumors utilized in this study had undergone 3 to 5 passages in vivo and the tumor histology of each was maintained over the serial transplantation.
When the mean tumor volume (TV) reached approximately 170 mm^3 (10 days after implantation), mice were selected based on their TVs, and were sorted into multiple treatment groups with 8 animals per group. Per os (PO) treatment with Compound 1 (300 mg/kg for Hep3B and 500 mg/kg for LIX125) alone or in combination with lenvatinib vehicle (control) or lenvatinib (10 mg/kg or 3 mg/kg) administered once daily (QD). […]
The administration volume (0.1 mL/10 g body weight) was calculated from the individual mouse body weight (BW) before administration. Body weights were measured daily and tumor measurements were performed twice weekly. […]
The tumor volume (TV) in mm^3 was calculated according to the following formula: TV=length×width^2×0.5 length: largest diameter of tumor (mm) width: diameter perpendicular to length (mm). The tumor growth inhibition % (TGI) was calculated according to the following formula: Tumor growth inhibition % (TGI)=[(Average control TV day X−Treatment TV day X)/(Average control TV day X)]×100, where day X is any day of the treatment. […]
Data represent the mean±SEM for tumor volume (N=8). The differences in TV between groups were analyzed by multiple unpaired t-tests with significance determined using the Holm-Sidak method. […]

Compound: COc1cc2nccc(Oc3ccc(NC(=O)NC4CC4)c(Cl)c3)c2cc1C(N)=O [Lenvatinib, 4-[3-chloro-4-(N′-cyclopropylureido)phenoxy]-7-methoxyquinoline-6-carboxamide]
- Tumor growth inhibition % (TGI) ([1]; lenvatinib 3 mg/kg PO QD single agent with Compound 1 vehicle, vs vehicle controls P>0.05): 23%
- animals with progressive disease (PD) ([1]; lenvatinib 3 mg/kg single agent): 8/8
- Tumor growth inhibition % (TGI) ([1]; lenvatinib 10 mg/kg PO QD single agent with Compound 1 vehicle, vs vehicle controls P<0.00005): 58%
- animals with progressive disease (PD) ([1]; lenvatinib 10 mg/kg single agent): 8/8
- Tumor growth inhibition % (TGI) ([2]; lenvatinib 3 mg/kg PO QD single agent, vs vehicle control p>0.05): 44%
- Tumor growth inhibition % (TGI) ([2]; lenvatinib 10 mg/kg PO QD single agent, vs vehicle control p<0.0007): 72%

Compound: C=CC(=O)Nc1cc(N2CCN(CC)CC2)ccc1Nc1cc(N(C)C(=O)Nc2c(Cl)c(OC)cc(OC)c2Cl)ncn1 [Compound 1, N-(2-((6-(3-(2,6-dichloro-3,5-dimethoxyphenyl)-1-methylureido)pyrimidin-4-yl)amino)-5-(4-ethylpiperazin-1-yl)phenyl)acrylamide]
- Tumor growth inhibition % (TGI) ([1]; Compound 1 300 mg/kg PO QD single agent with lenvatinib vehicle, vs vehicle control P<0.00001): 81%
- animals with progressive disease (PD) ([1]; Compound 1 300 mg/kg single agent, PD: 3 consecutive measurements >120% of starting volume or 3 consecutive increasing measurements from best response): 6/8
- Tumor growth inhibition % (TGI) ([2]; Compound 1 500 mg/kg PO QD single agent, vs vehicle controls p>0.05): 60%
